Results reported in the OligoGym collection.
HELM strings list units from the 5' end as sugar, base in round brackets, then linkage (d deoxyribose, r ribose, m 2'-O-methyl, p phosphodiester). Strings are as the collection lists them; they lack the last nucleoside at the 3' end of the tested compound. [moe] = 2'-O-(2-methoxyethyl) (MOE); [sp] = phosphorothioate linkage; [m5C] = 5-methylcytosine

target: GFAP; test: mouse, dose not given; conditions: ASO

Row | Substance | 3 h FOB score
1 | RNA1{[moe](G)[sp].[moe](T)p.[moe](G)p.[moe](A)p.[moe](T)[sp].d(T)[sp].d(T)[sp].d(T)[sp].d([m5C])[sp].d([m5C])[sp].d([m5C])[sp].d([m5C])[sp].d(G)[sp].[moe](T)p.[moe]([m5C])p.[moe](T)[sp].[moe](T)}$$$$ (last 3' nucleoside missing) | 0 score 0-7
2 | RNA1{[moe](G)[sp].[moe](T)p.[moe](G)p.[moe](A)p.[moe](T)[sp].d(T)[sp].d(T)[sp].d(T)[sp].d([m5C])[sp].d([m5C])[sp].d([m5C])[sp].d([m5C])[sp].d(G)[sp].d(T)[sp].d([m5C])[sp].[moe](T)p.[moe](T)p.[moe](T)[sp].[moe](G)}$$$$ (last 3' nucleoside missing) | 6 score 0-7
3 | RNA1{[moe](G)[sp].[moe](T)p.[moe](G)p.[moe](A)p.[moe]([m5C])[sp].d(T)[sp].d(A)[sp].d(T)[sp].d([m5C])[sp].d(T)[sp].d(A)[sp].d(G)[sp].d(G)[sp].d(A)[sp].d(T)[sp].[moe](T)p.[moe](T)p.[moe](G)[sp].[moe](G)}$$$$ (last 3' nucleoside missing) | 6 score 0-7
4 | RNA1{[moe](G)[sp].[moe](T)p.[moe](G)p.[moe](A)p.d([m5C])[sp].d(T)[sp].d(A)[sp].d(T)[sp].d([m5C])[sp].d(T)[sp].d(A)[sp].d(G)[sp].d(G)[sp].d(A)[sp].[moe](T)p.[moe](T)p.[moe](T)p.[moe](G)[sp].[moe](G)}$$$$ (last 3' nucleoside missing) | 3 score 0-7
5 | RNA1{[moe](G)[sp].[moe](T)p.[moe](G)p.[moe](G)p.[moe](A)[sp].d(G)[sp].d(G)[sp].d(G)[sp].d([m5C])[sp].d(G)[sp].d(A)[sp].d(T)[sp].d(G)[sp].d(T)[sp].d(A)[sp].[moe](G)p.[moe](T)p.[moe](A)[sp].[moe](G)}$$$$ (last 3' nucleoside missing) | 7 score 0-7
6 | RNA1{[moe](G)[sp].[moe](T)p.[moe](G)p.[moe](G)p.[moe](T)p.d([m5C])[sp].d([m5C])[sp].d(T)[sp].d(A)[sp].d(A)[sp].d(A)[sp].d(T)[sp].d(A)[sp].d(T)[sp].d(T)[sp].[moe]([m5C])p.[moe](T)p.[moe](A)[sp].[moe](G)}$$$$ (last 3' nucleoside missing) | 1 score 0-7
7 | RNA1{[moe](G)[sp].[moe](T)p.[moe](G)p.[moe](T)p.[moe](A)[sp].d(T)[sp].d(T)[sp].d(A)[sp].d(G)[sp].d(G)[sp].d(A)[sp].d(T)[sp].d([m5C])[sp].[moe]([m5C])p.[moe]([m5C])p.[moe](A)[sp].[moe](T)}$$$$ (last 3' nucleoside missing) | 4 score 0-7
8 | RNA1{[moe](G)[sp].[moe](T)p.[moe](G)p.[moe](T)p.[moe](A)[sp].d(T)[sp].d(T)[sp].d(A)[sp].d(G)[sp].d(G)[sp].d(A)[sp].d(T)[sp].d([m5C])[sp].d([m5C])[sp].d([m5C])[sp].[moe](A)p.[moe](T)p.[moe]([m5C])[sp].[moe](T)}$$$$ (last 3' nucleoside missing) | 4 score 0-7
9 | RNA1{[moe](G)[sp].[moe](T)p.[moe](G)p.[moe](T)p.[moe](A)p.[moe](T)p.d(T)[sp].d(A)[sp].d(G)[sp].d(G)[sp].d(A)[sp].d(T)[sp].d([m5C])[sp].d([m5C])[sp].d([m5C])[sp].d(A)[sp].[moe](T)p.[moe]([m5C])[sp].[moe](T)}$$$$ (last 3' nucleoside missing) | 4 score 0-7
10 | RNA1{[moe](G)[sp].[moe](T)p.[moe](G)p.[moe](T)p.[moe](A)p.d(T)[sp].d(T)[sp].d(A)[sp].d(G)[sp].d(G)[sp].d(A)[sp].d(T)[sp].d([m5C])[sp].d([m5C])[sp].d([m5C])[sp].[moe](A)p.[moe](T)p.[moe]([m5C])[sp].[moe](T)}$$$$ (last 3' nucleoside missing) | 2 score 0-7
11 | RNA1{[moe](G)[sp].[moe](T)p.[moe](G)p.[moe](T)p.[moe](G)[sp].d(T)[sp].d(A)[sp].d(T)[sp].d(T)[sp].d(A)[sp].d(G)[sp].d(G)[sp].d(A)[sp].[moe](T)p.[moe]([m5C])p.[moe]([m5C])[sp].[moe]([m5C])}$$$$ (last 3' nucleoside missing) | 3 score 0-7
12 | RNA1{[moe](G)[sp].[moe](T)p.[moe](G)p.[moe](T)p.[moe](G)[sp].d(T)[sp].d(A)[sp].d(T)[sp].d(T)[sp].d(A)[sp].d(G)[sp].d(G)[sp].d(A)[sp].d(T)[sp].d([m5C])[sp].[moe]([m5C])p.[moe]([m5C])p.[moe](A)[sp].[moe](T)}$$$$ (last 3' nucleoside missing) | 6 score 0-7
13 | RNA1{[moe](G)[sp].[moe](T)p.[moe](G)p.[moe](T)p.[moe](G)p.[moe](T)p.d(A)[sp].d(T)[sp].d(T)[sp].d(A)[sp].d(G)[sp].d(G)[sp].d(A)[sp].d(T)[sp].d([m5C])[sp].d([m5C])[sp].[moe]([m5C])p.[moe](A)[sp].[moe](T)}$$$$ (last 3' nucleoside missing) | 4 score 0-7
14 | RNA1{[moe](G)[sp].[moe](T)p.[moe](G)p.[moe](T)p.d(A)[sp].d(T)[sp].d(T)[sp].d(A)[sp].d(G)[sp].d(G)[sp].d(A)[sp].d(T)[sp].d([m5C])[sp].d([m5C])[sp].[moe]([m5C])p.[moe](A)p.[moe](T)p.[moe]([m5C])[sp].[moe](T)}$$$$ (last 3' nucleoside missing) | 3 score 0-7
15 | RNA1{[moe](G)[sp].[moe](T)p.[moe](G)p.[moe]([m5C])p.[moe](T)[sp].d(G)[sp].d(A)[sp].d(G)[sp].d(A)[sp].d(A)[sp].d(T)[sp].d([m5C])[sp].d(A)[sp].d(A)[sp].d(G)[sp].[moe]([m5C])p.[moe](T)p.[moe]([m5C])[sp].[moe]([m5C])}$$$$ (last 3' nucleoside missing) | 0 score 0-7
16 | RNA1{[moe](G)[sp].[moe](T)p.[moe](G)p.[moe]([m5C])p.[moe](T)[sp].d(G)[sp].d([m5C])[sp].d(T)[sp].d(G)[sp].d([m5C])[sp].d([m5C])[sp].d(A)[sp].d(G)[sp].d(A)[sp].d(G)[sp].[moe](T)p.[moe]([m5C])p.[moe]([m5C])[sp].[moe](T)}$$$$ (last 3' nucleoside missing) | 6 score 0-7
17 | RNA1{[moe](G)[sp].[moe](T)p.[moe](G)p.[moe]([m5C])p.[moe](T)[sp].d(T)[sp].d(T)[sp].d(A)[sp].d(G)[sp].d(T)[sp].d(G)[sp].d(A)[sp].d([m5C])[sp].d([m5C])[sp].d(T)[sp].[moe](G)p.[moe](T)p.[moe](G)[sp].[moe](A)}$$$$ (last 3' nucleoside missing) | 5 score 0-7
18 | RNA1{[moe](G)[sp].[moe](T)p.[moe](G)p.[moe]([m5C])p.[moe](T)[sp].d(T)[sp].d(T)[sp].d(T)[sp].d([m5C])[sp].d(T)[sp].d(G)[sp].d([m5C])[sp].d([m5C])[sp].d(T)[sp].d([m5C])[sp].[moe]([m5C])p.[moe](A)p.[moe](G)[sp].[moe](G)}$$$$ (last 3' nucleoside missing) | 2 score 0-7
19 | RNA1{[moe](G)[sp].[moe](T)p.[moe](G)p.[moe]([m5C])p.[moe](T)p.[moe](T)p.d(T)[sp].d(T)[sp].d(G)[sp].d([m5C])[sp].d([m5C])[sp].d([m5C])[sp].d([m5C])[sp].d([m5C])[sp].d(T)[sp].d(G)[sp].[moe](T)p.[moe](A)[sp].[moe](G)}$$$$ (last 3' nucleoside missing) | 3 score 0-7
20 | RNA1{[moe](G)[sp].[moe](T)p.[moe](G)p.[moe]([m5C])p.[moe]([m5C])[sp].d([m5C])[sp].d([m5C])[sp].d([m5C])[sp].d([m5C])[sp].d(G)[sp].d([m5C])[sp].d([m5C])[sp].d([m5C])[sp].d(T)[sp].d([m5C])[sp].[moe]([m5C])p.[moe](T)p.[moe]([m5C])[sp].[moe]([m5C])}$$$$ (last 3' nucleoside missing) | 2 score 0-7
21 | RNA1{[moe](G)[sp].[moe](T)p.[moe](G)p.[moe]([m5C])p.d(T)[sp].d(T)[sp].d(T)[sp].d(T)[sp].d(G)[sp].d([m5C])[sp].d([m5C])[sp].d([m5C])[sp].d([m5C])[sp].d([m5C])[sp].[moe](T)p.[moe](G)p.[moe](T)p.[moe](A)[sp].[moe](G)}$$$$ (last 3' nucleoside missing) | 3 score 0-7
22 | RNA1{[moe](G)[sp].[moe](T)p.[moe](T)p.[moe](T)p.[moe]([m5C])[sp].d(T)[sp].d(T)[sp].d(G)[sp].d(T)[sp].d(T)[sp].d(A)[sp].d(G)[sp].d(T)[sp].d(T)[sp].d(G)[sp].[moe](G)p.[moe](A)p.[moe](G)[sp].[moe](T)}$$$$ (last 3' nucleoside missing) | 7 score 0-7
23 | RNA1{[moe](G)[sp].[moe](T)p.[moe](T)p.[moe](T)p.[moe]([m5C])[sp].d([m5C])[sp].d(T)[sp].d(T)[sp].d(T)[sp].d(T)[sp].d(A)[sp].d([m5C])[sp].d([m5C])[sp].d(A)[sp].d(A)[sp].[moe](G)p.[moe]([m5C])p.[moe](T)[sp].[moe](G)}$$$$ (last 3' nucleoside missing) | 4 score 0-7
24 | RNA1{[moe](G)[sp].[moe](T)p.[moe]([m5C])p.[moe](A)p.[moe](G)[sp].d([m5C])[sp].d([m5C])[sp].d(T)[sp].d(G)[sp].d(G)[sp].d(T)[sp].d(T)[sp].d(A)[sp].[moe](G)p.[moe]([m5C])p.[moe]([m5C])[sp].[moe](T)}$$$$ (last 3' nucleoside missing) | 1 score 0-7
25 | RNA1{[moe](G)[sp].[moe](T)p.[moe]([m5C])p.[moe](A)p.[moe](G)[sp].d([m5C])[sp].d([m5C])[sp].d(T)[sp].d(G)[sp].d(G)[sp].d(T)[sp].d(T)[sp].d(A)[sp].d(G)[sp].d([m5C])[sp].[moe]([m5C])p.[moe](T)p.[moe](T)[sp].[moe](T)}$$$$ (last 3' nucleoside missing) | 6 score 0-7
26 | RNA1{[moe](G)[sp].[moe](T)p.[moe]([m5C])p.[moe](A)p.[moe](G)p.[moe]([m5C])p.d([m5C])[sp].d(T)[sp].d(G)[sp].d(G)[sp].d(T)[sp].d(T)[sp].d(A)[sp].d(G)[sp].d([m5C])[sp].d([m5C])[sp].[moe](T)p.[moe](T)[sp].[moe](T)}$$$$ (last 3' nucleoside missing) | 4 score 0-7
